Reference: US11034658B2, “Pyridinyl pyrazoles as modulators of RORγT” (Janssen Pharmaceutica NV, priority 2018, dated 2021)

How the values were obtained:
[1] = biological target: human RORγt ligand binding domain (RORγt LBD) (Homo sapiens (Human), UniProt P51449); assay: RORγt ThermoFluor assay
From the text: ThermoFluor® is a fluorescence based assay that estimates ligand binding affinities by measuring the effect of a ligand on protein thermal stability (Pantoliano, M. W., Petrella, E. C., Kwasnoski, J. D., Lobanov, V. S., Myslik, J., Graf, E., Carver, T., Asel, E., Springer, B. A., Lane, P., and Salemme, F. R. (2001) High-density miniaturized thermal shift assays as a general strategy for drug discovery. J Biomol Screen 6, 429-40, and Matulis, D., Kranz, J. K., Salemme, F. R., and Todd, M. J. (2005) Thermodynamic stability of carbonic anhydrase: measurements of binding affinity and stoichiometry using ThermoFluor. Biochemistry 44, 5258-66). This approach is applicable to a wide variety of systems, and rigorous in theoretical interpretation through quantitation of equilibrium binding constants (KD).
The shift in the melting point described as a ΔTm is proportional to the concentration and affinity of the ligand. The compound potency may be compared as a rank order of either values at a single compound concentration or in terms of KD values, estimated from concentration response curves.
RORγt ThermoFluor® Assay Construct
For the RORγt construct used in the ThermoFluor® assay, numbering for the nucleotide sequences was based on the reference sequence for human RORγt, transcript variant 2, NCBI Accession: NM 001001523.1 (SEQ ID NO:1). Nucleotides 850-1635 (SEQ ID NO:2) coding for the wild type human RORγt ligand binding domain (RORγt LBD) were cloned into the pHIS1 vector, a modified pET E. coli expression vector (Accelagen, San Diego), containing an in-frame N-terminal His-tag and a TurboTEV protease cleavage site (ENLYFQG, SEQ ID NO:3) upstream of the cloned insert sequence. The amino acid sequence for the RORγt construct used in the Thermofluor® assay is shown as SEQ ID NO:4.
ThermoFluor® experiments were carried out using instruments owned by Janssen Research and Development, L.L.C. through its acquisition of 3-Dimensional Pharmaceuticals, Inc. 1,8-ANS (Invitrogen) was used as a fluorescent dye. Protein and compound solutions are dispensed into black 384-well polypropylene PCR microplates (Abgene) and overlayed with silicone oil (1 μL, Fluka, type DC 200) to prevent evaporation.
Bar-coded assay plates are robotically loaded onto a thermostatically controlled PCR-type thermal block and then heated at a typical ramp-rate of 1° C./min for all experiments. Fluorescence was measured by continuous illumination with UV light (Hamamatsu LC6) supplied via fiber optic and filtered through a band-pass filter (380-400 nm; >6 OD cutoff). Fluorescence emission of the entire 384-well plate was detected by measuring light intensity using a CCD camera (Sensys, Roper Scientific) filtered to detect 500±25 nm, resulting in simultaneous and independent readings of all 384 wells. Images were collected at each temperature, and the sum of the pixel intensity in a given area of the assay plate was recorded versus temperature. Reference wells contained RORγt without compounds, and the assay conditions were as follows:
Project compounds were arranged in a pre-dosed mother plate (Greiner Bio-one) wherein compounds are serially diluted in 100% DMSO by 1:2 from a high concentration of 10 mM over 12 columns within a series (column 12 is a reference well containing DMSO, no compound). The compounds were robotically dispensed directly into assay plates (1×=46 nL) using a Hummingbird capillary liquid handling instrument (Digilab). Following compound dispense, protein and dye in buffer was added to achieve the final assay volume of 3 μL, followed by 1 μL of silicone oil.
The binding affinity was estimated as described previously (Matulis, D., Kranz, J. K., Salemme, F. R., and Todd, M. J. (2005) Thermodynamic stability of carbonic anhydrase: measurements of binding affinity and stoichiometry using ThermoFluor®. Biochemistry 44, 5258-66) using the following thermodynamic parameters of protein unfolding:
Reference RORγt Tm: 47.8° C.

[2] = biological target: full-length human RORγt (GAL4-DBD-RORγt fusion) in HEK293T cells (Homo sapiens (Human), UniProt P51449); assay: RORγt (full-length human) reporter assay, conditions A or B; assay type: cell-based; settings: for IC50: HEK293T cells, read-out: RORγt (FL) Reporter Assay A or B, IC50; for inhibition at 1 µM / inhibition at 3 µM: HEK-293T, read-out: RORγt (FL) Reporter Assay A or B, % inhibition; for inhibition at 1 µM: 1 μM compound concentration (footnote ***); for inhibition at 3 µM: 3 μM compound concentration (footnote *)
Experimental: RORγt (Full-Length Human) Reporter Assay:
(§1) HEK293T cells were plated at 35,000 per well in 96-well plate in medium of DMEM with 10% FBS. […] After overnight (16 to 20 hours) incubation, media were removed and cells were lysed with 50 μL Glo Lysis Buffer (Promega) for 10-15 minutes followed by 10 minute incubation with 50 μL Dual Glo reagent (Promega) at room temperature. Firefly luciferase luminescence was measured using a BMG Pherastar plate reader. To each well, 50 μL Stop and Glo reagent was added and incubated for 10 minutes at room temperature. Renilla luminescence was measured using a BMG Pherastar plate reader. To calculate the effect of compounds on RORγt activity, firefly values were normalized against values of DMSO only and values of reference compound at saturating concentration, then further normalized against Renilla signals. IC50s were generated by plotting final Renilla normalized data against compound concentration and percent inhibition was calculated against DMSO control.
as §1, with “at 8750 cells” for “at 35,000”, “in 384-well” for “in 96-well”, “with 20” for “with 50”, “well, 20” for “well, 50”

Sequence of full-length human RORγt (GAL4-DBD-RORγt fusion) in HEK293T cells (P51449 other isoform, or with tags, fused parts or gaps): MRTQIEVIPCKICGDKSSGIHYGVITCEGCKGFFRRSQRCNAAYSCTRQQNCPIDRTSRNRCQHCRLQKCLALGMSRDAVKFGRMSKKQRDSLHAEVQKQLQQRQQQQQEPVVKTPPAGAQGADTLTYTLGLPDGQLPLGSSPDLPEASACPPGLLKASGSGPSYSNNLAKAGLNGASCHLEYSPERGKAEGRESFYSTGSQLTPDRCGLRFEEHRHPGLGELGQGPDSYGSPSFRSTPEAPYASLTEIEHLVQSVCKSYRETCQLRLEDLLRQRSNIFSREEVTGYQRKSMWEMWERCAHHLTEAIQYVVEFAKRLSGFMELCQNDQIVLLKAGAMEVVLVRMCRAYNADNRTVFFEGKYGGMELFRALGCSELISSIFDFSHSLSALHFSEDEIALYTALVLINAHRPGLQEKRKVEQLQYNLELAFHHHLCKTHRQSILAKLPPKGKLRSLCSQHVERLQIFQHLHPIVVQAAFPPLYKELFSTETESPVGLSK
Sequence of human RORγt ligand binding domain (RORγt LBD) (P51449 other isoform, or with tags, fused parts or gaps): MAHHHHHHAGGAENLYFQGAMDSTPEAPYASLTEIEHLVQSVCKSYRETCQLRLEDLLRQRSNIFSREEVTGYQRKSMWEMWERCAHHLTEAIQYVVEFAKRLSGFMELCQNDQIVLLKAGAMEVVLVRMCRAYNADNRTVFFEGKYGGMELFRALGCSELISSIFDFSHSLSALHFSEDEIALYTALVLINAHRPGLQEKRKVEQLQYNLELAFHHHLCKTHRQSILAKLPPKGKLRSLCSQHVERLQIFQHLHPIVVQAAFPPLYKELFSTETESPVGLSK

Kd [1] [nM]	IC50 [2] [nM]	inhibition at 1 µM [2] [%]	inhibition at 3 µM [2] [%]	SMILES
100	63	76		CCn1nc(C(=O)NC[C@]2(O)CC[C@@H](S(C)(=O)=O)CC2)c(C)c1-c1cnc(CCCC(F)(F)F)cc1OC(F)F [Example 35, 5-(4-(Difluoromethoxy)-6-(4,4,4-trifluorobutyl)pyridin-3-yl)-1-ethyl-N-(((1s,4s)-1-hydroxy-4-(methylsulfonyl)cyclohexyl)methyl)-4-methyl-1H-pyrazole-3-carboxamide]
9.1	55		100	CCn1nc(C(=O)NC[C@@]2(O)CC[C@H](S(C)(=O)=O)C[C@@H]2O)c(Cl)c1-c1cnc(CC(C)(C)C(F)(F)F)cc1OC(F)F (stereo in doubt) [Example 4, 4-Chloro-5-(4-(difluoromethoxy)-6-(3,3,3-trifluoro-2,2-dimethylpropyl)pyridin-3-yl)-N-(((1S*,2S*,4S*)-1,2-dihydroxy-4-(methylsulfonyl)cyclohexyl)methyl)-1-ethyl-1H-pyrazole-3-carboxamide]
0.66	89		97	CCn1nc(C(=O)NC[C@]2(O)CC[C@@H](S(C)(=O)=O)CC2)c(Cl)c1-c1ccc(CC(C)(C)C(F)(F)F)nc1OC(F)F [Example 46, 4-Chloro-5-(2-(difluoromethoxy)-6-(3,3,3-trifluoro-2,2-dimethylpropyl)pyridin-3-yl)-1-ethyl-N-(((1s,4s)-1-hydroxy-4-(methylsulfonyl)cyclohexyl)methyl)-1H-pyrazole-3-carboxamide]
4.3	29		110	CCn1nc(C(=O)NC[C@H]2CC[C@H](S(N)(=O)=O)CC2)c(C)c1-c1cnc(CC(C)(C)C(F)(F)F)cc1OC(F)F [Example 12, 5-(4-(Difluoromethoxy)-6-(3,3,3-trifluoro-2,2-dimethylpropyl)pyridin-3-yl)-1-ethyl-4-methyl-N-(((1r,4r)-4-sulfamoylcyclohexyl)methyl)-1H-pyrazole-3-carboxamide]
3.6	36		82	CCn1nc(C(=O)NC[C@H]2CC[C@H](S(C)(=O)=O)CC2)c(Cl)c1-c1cnc(C[C@H](C)C(F)(F)F)cc1OC(F)F (single isomer, unassigned) [Example 14, 4-Chloro-5-(4-(difluoromethoxy)-6-((S*)-3,3,3-trifluoro-2-methylpropyl)pyridin-3-yl)-1-ethyl-N-(((1r,4S)-4-(methylsulfonyl)cyclohexyl)methyl)-1H-pyrazole-3-carboxamide]
5.2	16		101	CCn1nc(C(=O)NC[C@H]2CC[C@H](S(C)(=O)=O)CC2)c(C)c1-c1cnc(C[C@H](C)C(F)(F)F)cc1OC(F)F (single isomer, unassigned) [Example 16, 5-(4-(Difluoromethoxy)-6-((S*)-3,3,3-trifluoro-2-methylpropyl)pyridin-3-yl)-1-ethyl-4-methyl-N-(((1r,4S)-4-(methylsulfonyl)cyclohexyl)methyl)-1H-pyrazole-3-carboxamide]
1.7	44		95	CCn1nc(C(=O)NC[C@]2(O)CC[C@@H](S(C)(=O)=O)C[C@H]2O)c(Cl)c1-c1ccc(CC(C)(C)C(F)(F)F)nc1OC(F)F (stereo in doubt) [Example 47, 4-Chloro-5-(2-(difluoromethoxy)-6-(3,3,3-trifluoro-2,2-dimethylpropyl)pyridin-3-yl)-N-(((1R*,2R*,4R*)-1,2-dihydroxy-4-(methylsulfonyl)cyclohexyl)methyl)-1-ethyl-1H-pyrazole-3-carboxamide]
18	250		83	CCn1nc(C(=O)NC[C@]2(O)CC[C@@H](S(C)(=O)=O)CC2)c(Cl)c1-c1ncc(CC(C)(C)C(F)(F)F)cc1OC(F)F [Example 53, 4-Chloro-5-(3-(difluoromethoxy)-5-(3,3,3-trifluoro-2,2-dimethylpropyl)pyridin-2-yl)-1-ethyl-N-(((1s,4s)-1-hydroxy-4-(methylsulfonyl)cyclohexyl)methyl)-1H-pyrazole-3-carboxamide]
18	54		129	CCn1nc(C(=O)NC[C@H]2CC[C@H](S(C)(=O)=O)CC2)c(Cl)c1-c1cnc(CCCC(F)(F)F)cc1OC(F)F [Example 32, 4-Chloro-5-(4-(difluoromethoxy)-6-(4,4,4-trifluorobutyl)pyridin-3-yl)-1-ethyl-N-(((1r,4r)-4-(methylsulfonyl)cyclohexyl)methyl)-1H-pyrazole-3-carboxamide]
97	2		76	CCn1nc(C(=O)NC[C@]2(O)CC[C@@H](S(C)(=O)=O)CC2)c(C)c1-c1cnc(CC(C)(C)C(F)(F)F)cc1C(F)F [Example 28, 5-(4-(Difluoromethyl)-6-(3,3,3-trifluoro-2,2-dimethylpropyl)pyridin-3-yl)-1-ethyl-N-(((1s,4s)-1-hydroxy-4-(methylsulfonyl)cyclohexyl)methyl)-4-methyl-1H-pyrazole-3-carboxamide]
1.3	20	100		CCn1nc(C(=O)NC[C@]2(O)CC[C@@H](S(C)(=O)=O)CC2)c(C)c1-c1ccc(CC(C)(C)C(F)(F)F)nc1OC(F)F [Example 50, 5-(2-(Difluoromethoxy)-6-(3,3,3-trifluoro-2,2-dimethylpropyl)pyridin-3-yl)-1-ethyl-N-(((1s,4s)-1-hydroxy-4-(methylsulfonyl)cyclohexyl)methyl)-4-methyl-1H-pyrazole-3-carboxamide]
8.9	63		113	CCn1nc(C(=O)NC[C@]2(O)CC[C@@H](S(C)(=O)=O)CC2)c(C)c1-c1cnc(CC(C(F)(F)F)C(F)(F)F)cc1OC(F)F [Example 24, 5-(4-(Difluoromethoxy)-6-(3,3,3-trifluoro-2-(trifluoromethyl)propyl)pyridin-3-yl)-1-ethyl-N-(((1s,4s)-1-hydroxy-4-(methylsulfonyl)cyclohexyl)methyl)-4-methyl-1H-pyrazole-3-carboxamide]
